The source of these data is PMC6039181, “An expanded allosteric network in PTP1B by multitemperature crystallography, fragment screening, and covalent tethering” (eLife, 2018).

Each structure is given as a SMILES string.

The target in the test is T1, PTP1B (Homo sapiens, UniProt P18031, C32S/C92V/K197C).
T1 construct: gene PTPN1; residues 1–321
T1 sequence (P18031 1-321 C32S/C92V/K197C): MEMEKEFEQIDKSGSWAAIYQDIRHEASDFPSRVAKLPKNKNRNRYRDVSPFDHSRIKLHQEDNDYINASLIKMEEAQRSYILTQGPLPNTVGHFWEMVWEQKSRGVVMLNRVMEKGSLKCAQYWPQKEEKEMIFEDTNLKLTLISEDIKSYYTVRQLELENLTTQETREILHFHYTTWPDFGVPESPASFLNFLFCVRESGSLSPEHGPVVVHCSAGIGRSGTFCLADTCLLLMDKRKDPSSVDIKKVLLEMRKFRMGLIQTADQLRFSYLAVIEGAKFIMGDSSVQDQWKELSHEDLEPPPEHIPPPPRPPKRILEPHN
Description: crystal structure of tethered complex ([…] Å); mass-spectrometry tethering EC50 […]; pNPP inhibition Ki. The format is biochemical.

Regarding `CN(C)CCSSCC(=O)Nc1cc(-c2ccc(F)cc2F)ccc1O` [compound 2, 2], the Ki (as a rule, the dissociation constant of the complex between target and ligand, obtained from inhibition or displacement) stood at 7.1 ± 1.1 µM.
